Drawing on patent publication US20050250836A1, “Inhibitors of checkpoint kinases (Wee1 and Chk1)” (Pfizer Inc, priority 2004, published 2005), this text covers melting point for 16 compounds.

As usually defined, the melting point is the temperature, or range, at which the solid turns liquid. For the compound `CN1CCN(CCCn2cc(Br)c3c4c(c(-c5ccccc5Cl)cc32)C(=O)NC4=O)CC1` [Example 138, 8-Bromo-4-(2-chlorophenyl)-6-[3-(4-methylpiperazin-1-yl)-propyl]-6H-2,6-diaza-as-indacene-1,3-dione], the melting point is 150 to 152 °C.
In the case of `O=C1NC(=O)c2c1c(-c1ccccc1Cl)cc1c2c(Br)cn1CCCN1CCOCC1` [Example 139, 8-Bromo-4-(2-chlorophenyl)-6-(3-morpholin-4-ylpropyl)-6H-2,6-diaza-as-indacene-1,3-dione], the melting point is 117 to 120 °C.
With `CN(C)CCCn1cc(Br)c2c3c(c(-c4ccccc4Cl)cc21)C(=O)NC3=O` [Example 140, 8-Bromo-4-(2-chlorophenyl)-6-(3-dimethylaminopropyl)-6H-2,6-diaza-as-indacene-1,3-dione] the figure was 160 to 162 °C; with `CCCN(CCC)CCCn1cc(Br)c2c3c(c(-c4ccccc4Cl)cc21)C(=O)NC3=O` [Example 141, 8-Bromo-4-(2-chlorophenyl)-6-(3-dipropylaminopropyl)-6H-2,6-diaza-as-indacene-1,3-dione], 173 to 175 °C; with `O=C1NC(=O)c2c1c(-c1ccccc1Cl)cc1c2ccn1CCN1CCCC1` [Example 142, 4-(2-Chlorophenyl)-6-(2-pyrrolidin-1-ylethyl)-6H-2,6-diaza-as-indacene-1,3-dione], 208 to 209 °C.
For `C=Cc1cn(C)c2cc(-c3ccccc3Cl)c3c(c12)C(=O)NC3=O` [Example 145, 4-(2-Chlorophenyl)-6-methyl-8-vinyl-6H-2,6-diaza-as-indacene-1,3-dione] the value was 200 to 205 °C; for `Cn1cc(C(O)CO)c2c3c(c(-c4ccccc4Cl)cc21)C(=O)NC3=O` (stereo not shown) [Example 146, 4-(2-Chlorophenyl)-8-(1,2-dihydroxyethyl)-6-methyl-6H-2,6-diaza-as-indacene-1,3-dione], 179 to 183 °C; for `Cn1cc(CCO)c2c3c(c(-c4ccccc4Cl)cc21)C(=O)NC3=O` [Example 147, 4-(2-Chlorophenyl)-8-(2-hydroxyethyl)-6-methyl-6H-2,6-diaza-as-indacene-1,3-dione], 225 to 229 °C.
`CCc1cn(C)c2cc(-c3ccccc3Cl)c3c(c12)C(=O)NC3=O` [Example 148, 4-(2-Chlorophenyl)-8-ethyl-6-methyl-6H-2,6-diaza-as-indacene-1,3-dione] displayed a melting point of 230 to 233 °C.
For `C#Cc1cn(C)c2cc(-c3ccccc3Cl)c3c(c12)C(=O)NC3=O` [Example 149, 4-(2-Chlorophenyl)-8-ethynyl-6-methyl-6H-2,6-diaza-as-indacene-1,3-dione] the value was 125 to 129 °C; for `COc1ccccc1-c1cc2c(c(C#CCO)cn2C)c2c1C(=O)NC2=O` [Example 150, 8-(3-Hydroxyprop-1-ynyl)-4-(2-methoxyphenyl)-6-methyl-6H-2,6-diaza-as-indacene-1,3-dione], 154 to 157 °C; for `Cn1cc(C#N)c2c3c(c(-c4ccccc4Cl)cc21)C(=O)NC3=O` [Example 151, 4-(2-Chlorophenyl)-6-methyl-1,3-dioxo-1,2,3,6-tetrahydro-2,6-diaza-as-indacene-8-carbonitrile], 160 to 163 °C.
For `O=C(O)CCn1cc(Br)c2c3c(c(-c4ccccc4Cl)cc21)C(=O)NC3=O` [Example 165, 3-[8-Bromo-4-(2-chlorophenyl)-1,3-dioxo-2,3-dihydro-1H-2,6-diaza-as-indacen-6-yl]propionic acid] the value was 182 to 186 °C; for `Cn1cc(CN2CCCC2)c2c3c(c(-c4ccccc4Cl)cc21)C(=O)NC3=O` [Example 166, 4-(2-Chlorophenyl)-6-methyl-8-pyrrolidin-1-ylmethyl-6H-2,6-diaza-as-indacene-1,3-dione], 160 to 165 °C (dec.).
With `CN(C)Cc1cn(C)c2cc(-c3ccccc3Cl)c3c(c12)C(=O)NC3=O` [Example 167, 4-(2-Chlorophenyl)-8-dimethylaminomethyl-6-methyl-6H-2,6-diaza-as-indacene-1,3-dione] the figure was 155 to 159 °C.
Consider `Cn1cc(CO)c2c3c(c(-c4ccccc4Cl)cc21)C(=O)NC3=O` [Example 168, 4-(2-chlorophenyl)-8-hydroxymethyl-6-methyl-6H-2,6-diaza-as-indacene-1,3-dione], for which the melting point lay in the range of 270 to 274 °C.
